Each structure is given as a SMILES string. Bounds are passed on as bounds.

The experiment addresses T1, Human TRPC6 (Homo sapiens, UniProt Q9Y210).
T1 construct: expressed in transfected cells
T1 sequence (Q9Y210 1-931): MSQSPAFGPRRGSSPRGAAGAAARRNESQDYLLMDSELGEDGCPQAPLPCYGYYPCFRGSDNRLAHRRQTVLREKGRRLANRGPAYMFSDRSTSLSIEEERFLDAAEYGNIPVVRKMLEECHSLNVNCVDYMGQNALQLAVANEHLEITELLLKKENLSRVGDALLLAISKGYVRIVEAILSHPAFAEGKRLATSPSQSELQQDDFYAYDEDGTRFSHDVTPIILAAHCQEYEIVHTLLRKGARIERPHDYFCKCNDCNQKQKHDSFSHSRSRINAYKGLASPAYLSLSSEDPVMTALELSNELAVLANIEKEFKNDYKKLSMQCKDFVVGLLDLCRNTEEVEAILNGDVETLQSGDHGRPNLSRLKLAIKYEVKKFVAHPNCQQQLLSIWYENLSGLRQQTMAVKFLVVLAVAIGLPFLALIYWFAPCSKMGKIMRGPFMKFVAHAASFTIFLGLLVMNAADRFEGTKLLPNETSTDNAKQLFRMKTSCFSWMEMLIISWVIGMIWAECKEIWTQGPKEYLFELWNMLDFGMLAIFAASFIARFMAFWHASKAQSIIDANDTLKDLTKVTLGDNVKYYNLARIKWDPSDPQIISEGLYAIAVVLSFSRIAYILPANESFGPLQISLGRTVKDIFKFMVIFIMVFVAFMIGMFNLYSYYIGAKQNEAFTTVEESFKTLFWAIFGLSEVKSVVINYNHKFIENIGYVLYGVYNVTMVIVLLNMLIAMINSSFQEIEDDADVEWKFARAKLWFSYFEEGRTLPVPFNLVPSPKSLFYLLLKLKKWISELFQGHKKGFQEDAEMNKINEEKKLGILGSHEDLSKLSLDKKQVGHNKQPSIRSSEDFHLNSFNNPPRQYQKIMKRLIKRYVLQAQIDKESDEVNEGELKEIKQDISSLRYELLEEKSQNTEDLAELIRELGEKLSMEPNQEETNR
As to the kind of experiment: Evaluation of TRPC6 channel inhibitory activity (1), FLIPR Calcium 5 Assay Kit, OAG stimulation (Compound Nos. 1-1293). The class given is cell-based. The note with it: Human TRPC6 stably-expressing cells, OAG 30 μM, FLIPR Calcium 5 Assay Kit; read-out: Inhibitory activity (pIC50 class) (converted). The method, boiled down: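 TRPC6 (human) stable cells, 24 h culture; Ca5 no-wash dye + probenecid 30 min; cpd 20 min; OAG 30 μM final; ΔF (pre-cpd min to post-OAG max); 0%/100% = no cpd / no cpd + no OAG; 4PL → pIC50, binned +/++/+++.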

With `CC(C)Cn1cc(Oc2cc(C#N)ccc2-c2ncc(CCN)cn2)c(C(F)(F)F)n1` [compound 955, 4-[5-(2-aminoethyl)pyrimidin-2-yl]-3-[1-(2-methylpropyl)-3-(trifluoromethyl)pyrazol-4-yl]oxybenzonitrile], the IC50 is less than 10 nM.

`CN(C)C(=O)c1cc(Oc2cc(C#N)ccc2-c2ncc(CN)cn2)n(C)n1` [compound 956, 5-[2-[5-(aminomethyl)pyrimidin-2-yl]-5-cyanophenoxy]-N,N,1-trimethylpyrazole-3-carboxamide]: the IC50 was 10 to 1000 nM. As for `Cc1nc(-c2cc(Oc3cc(C#N)ccc3-c3ncc(CN)cn3)n(C)n2)cs1` [compound 957, 4-[5-(aminomethyl)pyrimidin-2-yl]-3-[2-methyl-5-(2-methyl-1,3-thiazol-4-yl)pyrazol-3-yl]oxybenzonitrile], the figure is less than 10 nM. The figure for `Cc1ncsc1-c1cc(Oc2cc(C#N)ccc2-c2ncc(CN)cn2)n(C)n1` [compound 958, 4-[5-(aminomethyl)pyrimidin-2-yl]-3-[2-methyl-5-(4-methyl-1,3-thiazol-5-y)pyrazol-3-yl]oxybenzonitrile] is less than 10 nM.

Turning to `Cc1csc(-c2cc(Oc3cc(C#N)ccc3-c3ncc(CN)cn3)n(C)n2)n1` [compound 959, 4-[5-(aminomethyl)pyrimidin-2-yl]-3-[2-methyl-5-(4-methyl-1,3-thiazol-2-yl)pyrazol-3-yl]oxybenzonitrile], the IC50 was 10 to 1000 nM. Turning to `Cc1cnc(-c2cc(Oc3cc(C#N)ccc3-c3ncc(CN)cn3)n(C)n2)s1` [compound 960, 4-[5-(aminomethyl)pyrimidin-2-yl]-3-[2-methyl-5-(5-methyl-1,3-thiazol-2-yl)pyrazol-3-yl]oxybenzonitrile], the IC50 was 10 to 1000 nM. The figure for `Cc1nnc(-c2cc(Oc3cc(C#N)ccc3-c3ncc(CN)cn3)n(C)n2)s1` [compound 961, 4-[5-(aminomethyl)pyrimidin-2-yl]-3-[2-methyl-5-(5-methyl-1,3,4-thiadiazol-2-yl)pyrazol-3-yl]oxybenzonitrile] is more than 1000 nM. The figure for `Cc1ncc(-c2cc(Oc3cc(C#N)ccc3-c3ncc(CN)cn3)n(C)n2)s1` [compound 962, 4-[5-(aminomethyl)pyrimidin-2-yl]-3-[2-methyl-5-(2-methyl-1,3-thiazol-5-yl)pyrazol-3-yl]oxybenzonitrile] is 10 to 1000 nM; for `Cc1scnc1-c1cc(Oc2cc(C#N)ccc2-c2ncc(CN)cn2)n(C)n1` [compound 963, 4-[5-(aminomethyl)pyrimidin-2-yl]-3-[2-methyl-5-(5-methyl-1,3-thiazol-4-yl)pyrazol-3-yl]oxybenzonitrile] it is less than 10 nM. With `Cn1nc(C#N)cc1Oc1cc(C#N)ccc1-c1ccc(CCN)cn1` [compound 964, 5-[2-[5-(2-aminoethyl)pyridin-2-yl]-5-cyanophenoxy]-1-methylpyrazole-3-carbonitrile], the IC50 is 10 to 1000 nM. The figure for `Cc1nc(Oc2cc(F)ccc2-c2ncc(CCN)cn2)cc(N2CCOCC2)n1` [compound 965, 2-[2-[4-fluoro-2-(2-methyl-6-morpholin-4-ylpyrimidin-4-yl)oxyphenyl]pyrimidin-5-yl]ethanamine] is 10 to 1000 nM; for `Cc1nn(CC(F)(F)F)cc1Oc1cc(F)ccc1-c1ncc(CCN)cn1` [compound 968, 2-[2-[4-fluoro-2-[3-methyl-1-(2,2,2-trifluoroethyl)pyrazol-4-yl]oxyphenyl]pyrimidin-5-yl]ethanamine] it is less than 10 nM. On to `Cc1nn(-c2ccccn2)cc1Oc1cc(F)ccc1-c1ncc(CCN)cn1` [compound 969, 2-[2-[4-fluoro-2-(3-methyl-1-pyridin-2-ylpyrazol-4-yl)oxyphenyl]pyrimidin-5-yl]ethanamine], for which the IC50 is less than 10 nM. As for `Cc1c(Oc2cc(F)ccc2-c2ncc(CCN)cn2)cnn1CC(F)(F)F` [compound 970, 2-[2-[4-fluoro-2-[5-methyl-1-(2,2,2-trifluoroethyl)pyrazol-4-yl]oxyphenyl]pyrimidin-5-yl]ethanamine], the IC50 was more than 1000 nM. As for `Cc1c(Oc2cc(F)ccc2-c2ncc(CCN)cn2)cnn1-c1ccccn1` [compound 971, 2-[2-[4-fluoro-2-(5-methyl-1-pyridin-2-ylpyrazol-4-yl)oxyphenyl]pyrimidin-5-yl]ethanamine], the figure is more than 1000 nM; as for `CCN(CC)c1cc(Oc2cc(F)ccc2-c2ncc(CCN)cn2)n(C)n1` [compound 972, 5-[2-[5-(2-aminoethyl)pyrimidin-2-yl]-5-fluorophenoxy]-N,N-diethyl-1-methylpyrazole-3-amine], less than 10 nM. As for `Cn1nc(N2CCOCC2)cc1Oc1cc(F)ccc1-c1ncc(CCN)cn1` [compound 973, 2-[2-[4-fluoro-2-(2-methyl-5-morpholin-4-ylpyrazol-3-yl)oxyphenyl]pyrimidin-5-yl]ethanamine], the IC50 was 10 to 1000 nM. The figure for `Cn1nc(N2CCOCC2)cc1Oc1cc(F)ccc1-c1ncc(CN)cn1` [compound 974, [2-[4-fluoro-2-(2-methyl-5-morpholin-4-ylpyrazol-3-yl)oxyphenyl]pyrimidin-5-yl]methanamine] is 10 to 1000 nM; for `Cn1nc(N2CCOCC2)cc1Oc1cc(F)ccc1-c1ccc(CCN)cn1` [compound 975, 2-[6-[4-fluoro-2-(2-methyl-5-morpholin-4-ylpyrazol-3-yl)oxyphenyl]pyridin-3-yl]ethanamine] it is less than 10 nM. As for `Cn1nc(N2CCOCC2)cc1Oc1cc(F)ccc1-c1ccc(CN)cn1` [compound 976, [6-[4-fluoro-2-(2-methyl-5-morpholin-4-ylpyrazo1-3-yl)oxyphenyl]pyridin-3-yl]methanamine], the IC50 was 10 to 1000 nM.

On to `Cn1nc(-c2ccccn2)cc1Oc1cc(F)ccc1-c1ncc(CCN)cn1` [compound 977, 2-[2-[4-fluoro-2-(2-methyl-5-pyridin-2-ylpyrazol-3-yl)oxyphenyl]pyrimidin-5-yl]ethanamine], for which the IC50 is less than 10 nM. The figure for `Cc1cc(Oc2cc(F)ccc2-c2ncc(CCN)cn2)cc(N2CCOCC2)n1` [compound 978, 2-[2-[4-fluoro-2-(2-methyl-6-morpholin-4-ylpyridin-4-yl)oxyphenyl]pyrimidin-5-yl]ethanamine] is less than 10 nM. As for `Cn1nc(N2CCCC2)cc1Oc1cc(F)ccc1-c1ncc(CCN)cn1` [compound 979, 2-[2-[4-fluoro-2-(2-methyl-5-pyrrolidin-1-ylpyrazol-3-yl)oxyphenyl]pyrimidin-5-yl]ethanamine], the figure is less than 10 nM. With `Cn1nc(N2CCCC2)cc1Oc1cc(F)ccc1-c1ccc(CCN)cn1` [compound 980, 2-[6-[4-fluoro-2-(2-methyl-5-pyrrolidin-1-ylpyrazol-3-yl)oxyphenyl]pyridin-3-yl]ethanamine], the IC50 was less than 10 nM. The figure for `CC(C)n1cc(Oc2cc(F)ccc2-c2ncc(CCN)cn2)cn1` [compound 981, 2-[2-[4-fluoro-2-(1-propan-2-ylpyrazol-4-yl)oxyphenyl]pyrimidin-5-yl]ethanamine] is 10 to 1000 nM; for `CC(C)Cn1cc(Oc2cc(F)ccc2-c2ncc(CCN)cn2)cn1` [compound 982, 2-[2-[4-fluoro-2-[1-(2-methylpropyl)pyrazol-4-yl]oxyphenyl]pyrimidin-5-yl]ethanamine] it is 10 to 1000 nM. The figure for `Cc1nn(C(C)C)cc1Oc1cc(F)ccc1-c1ncc(CCN)cn1` [compound 983, 2-[2-[4-fluoro-2-(3-methyl-1-propan-2-ylpyrazol-4-yl)oxyphenyl]pyrimidin-5-yl]ethanamine] is less than 10 nM.

The record behind these values is US20230167073A1 (Teijin Pharma Limited, priority 2020, published 2023).
